Test results taken from patent US20160250213A1, “FORMULATIONS OF AZAINDOLE COMPOUNDS” (priority 2013, published 2016).
Values joined by “and” are separate entries in the source; they are usually repeats but may differ in a detail not shown here. Equal values may be shown once. Read-outs that look alike come from different tables or passages of the source.

Columns and labels:
A/Mal/302/54 (H1N1) = assay: microbe, parasite or virus in culture; assay type: cell-based; conditions: Influenza A virus, MDCK, read-out: Cell Protection Assay EC50 ± SD
[1] = tested on: A/Virginia/ATCC3/2009 (H1N1); assay: microbe, parasite or virus in culture; assay type: cell-based; conditions: Influenza A virus, MDCK, read-out: Cell Protection Assay EC50 ± SD
A/New Jersey/8/76 (H1N1) = assay: microbe, parasite or virus in culture; assay type: cell-based; conditions: Influenza A virus, H1N1, MDCK, read-out: Cell Protection Assay EC50 ± SD
A/Hong Kong/8/68 (H3N2) = assay: microbe, parasite or virus in culture; assay type: cell-based; conditions: Influenza A virus, MDCK, read-out: Cell Protection Assay EC50 ± SD
B/Russia/69 = assay: microbe, parasite or virus in culture; assay type: cell-based; conditions: Influenza B virus, MDCK, read-out: Cell Protection Assay EC50 ± SD
[2] = tested on: A/Equine/2/Miami/63 (H3N8); assay: microbe, parasite or virus in culture; assay type: cell-based; conditions: Influenza A virus, H3N8, MDCK, read-out: Cell Protection Assay EC50 ± SD
[3] = tested on: Influenza A/Vietnam/1203/2004 (H5N1) virus; set-up: species or system BALB/c mice; conditions: mouse, in vivo
[4] = tested on: A/Virginia/ATCC2/2009 (H1N1); assay: microbe, parasite or virus in culture; assay type: cell-based; conditions: Influenza A virus, MDCK, read-out: Cell Protection Assay EC50 ± SD
A/Missouri/3/2006 (H1N1) = assay: microbe, parasite or virus in culture; assay type: cell-based; conditions: Influenza A virus, MDCK, read-out: Cell Protection Assay EC50 ± SD
A/FM/1/47 (H1N1) = assay: microbe, parasite or virus in culture; assay type: cell-based; conditions: Influenza A virus, MDCK, read-out: Cell Protection Assay EC50 ± SD
[5] = tested on: influenza A/Wisconsin/67/2005 (H3N2) challenge strain virus; assay type: in vivo, humans (healthy volunteers)
A/Victoria/3/75 (H3N2) = assay: microbe, parasite or virus in culture; assay type: cell-based; conditions: Influenza A virus, MDCK, read-out: Cell Protection Assay EC50 ± SD
[6] = tested on: Influenza A/California/04/2009 (pndH1N1) virus; assay type: in vivo, BALB/c mice
[7] = tested on: influenza A/Wisconsin/67/2005 (H3N2) challenge strain virus; assay type: in vivo, humans (healthy volunteers); remark: listed apart in the source
[8] = single doses up to 1600 mg and multiple doses up to 800 mg daily for 10 days
A/Hawaii/2/2006 (H3N2) = assay: microbe, parasite or virus in culture; assay type: cell-based; conditions: Influenza A virus, MDCK, read-out: Cell Protection Assay EC50 ± SD
[9] = 900 mg Day 1, 600 mg qd Days 2-5, N = 19
[10] = 1200 mg Day 1, 600 mg qd Days 2-5, N = 18
[11] = pooled Compound (1) groups, N = 72
[12] = 100 mg QD 5 days, FA set N = 12
[13] = 400 mg QD 5 days, FA set N = 12
[14] = 900 mg Day 1, 600 mg Days 2-5, FA set N = 14
[15] = 1200 mg Day 1, 600 mg Days 2-5, FA set N = 14
[16] = pooled Compound (1) dose groups, FA set N = 52
[17] = 1 mg/kg p.o. twice a day for 10 days starting 2 hours prior to virus exposure
[18] = 3 mg/kg p.o. twice a day for 10 days starting 2 hours prior to virus exposure
[19] = 10 mg/kg p.o. twice a day for 10 days starting 2 hours prior to virus exposure
[20] = 900 mg Day 1, 600 mg Days 2-5, […]
[21] = 1200 mg Day 1, 600 mg Days 2-5, […]
[22] = pooled Compound (1) dose groups, […]

O=C(O)[C@H]1C2CCC(CC2)C1Nc1nc(-c2c[nH]c3ncc(F)cc23)ncc1F (some centres unmarked) [Compound (1)]
EC50 (A/Mal/302/54 (H1N1)): 0.57 ± 0.055 nM | EC50 [1]: 1.9 ± 3.2 nM | EC50 (A/New Jersey/8/76 (H1N1)): 0.2 ± 0.096 nM | tolerability (100 mg to 1200/600 mg QD, five daily doses): well tolerated | Adverse event: Alanine aminotransferase increased (100 mg, N = 16): 3 (18.8) n(%) | Adverse event: Aspartate aminotransferase increased (100 mg, N = 16): 1 (6.3) n(%) | Adverse event: Blood phosphorus decreased (100 mg, N = 16): 3 (18.8) n(%) | Adverse event: Dermatitis contact (100 mg, N = 16): 3 (18.8) n(%) | Adverse event: Headache (100 mg, N = 16): 1 (6.3) n(%) | Adverse event: Influenza-like illness (100 mg, N = 16): 8 (50.0) n(%) | Adverse event: Malaise (100 mg, N = 16): 2 (12.5) n(%) | Adverse event: Nasal congestion (100 mg, N = 16): 0 n(%) | Adverse event: Nausea (100 mg, N = 16): 0 n(%) | Adverse event: Oropharylngeal pain (100 mg, N = 16): 2 (12.5) n(%) | Adverse event: Rhinorrhea (100 mg, N = 16): 0 n(%) | Adverse event: Spirometry abnormal (100 mg, N = 16): 2 (12.5) n(%) | Adverse event: Tension Headache (100 mg, N = 16): 0 n(%) | Adverse event: Alanine aminotransferase increased (400 mg, N = 19): 1 (5.3) n(%) | Adverse event: Aspartate aminotransferase increased (400 mg, N = 19): 1 (5.3) n(%) | Adverse event: Blood phosphorus decreased (400 mg, N = 19): 0 n(%) | Adverse event: Dermatitis contact (400 mg, N = 19): 0 n(%) | Adverse event: Headache (400 mg, N = 19): 4 (21.1) n(%) | Adverse event: Influenza-like illness (400 mg, N = 19): 10 (52.6) n(%) | Adverse event: Malaise (400 mg, N = 19): 0 n(%) | Adverse event: Nasal congestion (400 mg, N = 19): 0 n(%) | Adverse event: Nausea (400 mg, N = 19): 2 (10.5) n(%) | Adverse event: Oropharylngeal pain (400 mg, N = 19): 0 n(%) | Adverse event: Rhinorrhea (400 mg, N = 19): 2 (10.5) n(%) | Adverse event: Spirometry abnormal (400 mg, N = 19): 4 (21.1) n(%) | Adverse event: Tension Headache (400 mg, N = 19): 2 (10.5) n(%) | Adverse event: Alanine aminotransferase increased [9]: 0 n(%) | Adverse event: Aspartate aminotransferase increased [9]: 0 n(%) | Adverse event: Blood phosphorus decreased [9]: 6 (31.6) n(%) | Adverse event: Dermatitis contact [9]: 0 n(%) | Adverse event: Headache [9]: 0 n(%) | Adverse event: Influenza-like illness [9]: 9 (47.4) n(%) | Adverse event: Malaise [9]: 0 n(%) | Adverse event: Nasal congestion [9]: 0 n(%) | Adverse event: Nausea [9]: 1 (5.3) n(%) | Adverse event: Oropharylngeal pain [9]: 1 (5.3) n(%) | Adverse event: Rhinorrhea [9]: 0 n(%) | Adverse event: Spirometry abnormal [9]: 0 n(%) | Adverse event: Tension Headache [9]: 1 (5.3) n(%) | Adverse event: Alanine aminotransferase increased [10]: 6 (33.3) n(%) | Adverse event: Aspartate aminotransferase increased [10]: 2 (11.1) n(%) | Adverse event: Blood phosphorus decreased [10]: 4 (22.2) n(%) | Adverse event: Dermatitis contact [10]: 0 n(%) | Adverse event: Headache [10]: 2 (11.1) n(%) | Adverse event: Influenza-like illness [10]: 7 (38.9) n(%) | Adverse event: Malaise [10]: 0 n(%) | Adverse event: Nasal congestion [10]: 1 (5.6) n(%) | Adverse event: Nausea [10]: 0 n(%) | Adverse event: Oropharylngeal pain [10]: 0 n(%) | Adverse event: Rhinorrhea [10]: 1 (5.6) n(%) | Adverse event: Spirometry abnormal [10]: 4 (22.2) n(%) | Adverse event: Tension Headache [10]: 0 n(%) | incidence of decreased blood phosphorus level (Compound (1) groups): 18.1% | incidence of nasal congestion (Compound (1) groups): 1.4% | incidence of rhinorrhea (Compound (1) groups): 4.2% | Adverse event: Alanine aminotransferase increased [11]: 10 (13.9) n(%) | Adverse event: Aspartate aminotransferase increased [11]: 4 (5.6) n(%) | Adverse event: Blood phosphorus decreased [11]: 13 (18.1) n(%) | Adverse event: Dermatitis contact [11]: 3 (4.2) n(%) | Adverse event: Headache [11]: 7 (9.7) n(%) | Adverse event: Influenza-like illness [11]: 34 (47.2) n(%) | Adverse event: Malaise [11]: 2 (2.8) n(%) | Adverse event: Nasal congestion [11]: 1 (1.4) n(%) | Adverse event: Nausea [11]: 3 (4.2) n(%) | Adverse event: Oropharylngeal pain [11]: 3 (4.2) n(%) | Adverse event: Rhinorrhea [11]: 3 (4.2) n(%) | Adverse event: Spirometry abnormal [11]: 10 (13.9) n(%) | Adverse event: Tension Headache [11]: 3 (4.2) n(%) | EC50 (A/Hong Kong/8/68 (H3N2)): 0.6 ± 0.11 nM | EC50 (B/Russia/69): > 10 nM | EC50 [2]: 0.5 ± 0.065 nM | MDD ± SD (mean day of death of mice that died on or before day 21) [3]: >21 | Mean Lung Parameters (Day 6): Virus Titer [3]: 3.75 ± 0.94 Log 10 CCID50/g | Survivors/Total [3]: 10/10 | EC50 [4]: 1.9 ± 3 nM | EC50 (A/Missouri/3/2006 (H1N1)): 0.21 ± 0.06 nM | EC50 (A/FM/1/47 (H1N1)): 0.57 ± 0.036 nM | Viral Shedding by qRT-PCR, AUC, median [5, 12]: 6.05 log10 copies/mL*Day | Viral Shedding by qRT-PCR, Duration, median [5, 12]: 0.96 days | Viral Shedding by qRT-PCR, AUC, median [5, 13]: 4.90 log10 copies/mL*Day | Viral Shedding by qRT-PCR, Duration, median [5, 13]: 1.36 days | Viral Shedding by qRT-PCR, AUC, median [5, 14]: 10.65 log10 copies/mL*Day | Viral Shedding by qRT-PCR, Duration, median [5, 14]: 2.39 days | Viral Shedding by qRT-PCR, AUC, median [5, 15]: 0.45 log10 copies/mL*Day | Viral Shedding by qRT-PCR, Duration, median [5, 15]: 0.00 days | Viral Shedding by qRT-PCR, AUC, median [5, 16]: 3.45 log10 copies/mL*Day | Viral Shedding by qRT-PCR, Duration, median [5, 16]: 0.71 days | EC50 (A/Victoria/3/75 (H3N2)): 1.3 ± 0.63 nM | Mean Lung Parameters (Day 6): Score (hemorrhage, 0 to 4) [6, 17]: 0.6 | Mean Lung Parameters (Day 6): Virus Titer [6, 17]: 5.5 Log10 CCID50/g | Mean Lung Parameters (Day 6): Weight [6, 17]: 246 mg | Mean Lung Parameters (Day 6): Score (hemorrhage, 0 to 4) [6, 18]: 0.0 | Mean Lung Parameters (Day 6): Virus Titer [6, 18]: 3.1 Log10 CCID50/g | Mean Lung Parameters (Day 6): Weight [6, 18]: 123 mg | Mean Lung Parameters (Day 6): Score (hemorrhage, 0 to 4) [6, 19]: 0.2 | Mean Lung Parameters (Day 6): Virus Titer [6, 19]: <2.6^d*** Log10 CCID50/g | Mean Lung Parameters (Day 6): Weight [6, 19]: 132 mg | Serology, Sero-conversion (%) [7, 20]: (68%) | Serology, Sero-conversion, n/N [7, 20]: 13/19 | Serology, Sero-conversion (%) [7, 21]: (67%) | Serology, Sero-conversion, n/N [7, 21]: 12/18 | Serology, Sero-conversion, n/N ([7]; in vivo): 11/16 and 9/19 | Serology, Sero-conversion (%) [7, 22]: (63%) | Serology, Sero-conversion, n/N [7, 22]: 45/72 | liver function abnormalities, serum phosphate decreases [8]: Neither liver function abnormalities nor serum phosphate decreases were observed | EC50 (A/Hawaii/2/2006 (H3N2)): 1.4 ± 0.91 nM
